From PubChem BioAssay AID248 (DTP/NCI, 2004)
Toxic doses and inconclusive results are not listed.

Test system: L1210 leukemia ip in BDF1 mice, survival T/C
Assay: NCI In Vivo Anticancer Drug Screen. Data for tumor model L1210 Leukemia (intraperitoneal) in B6D2F1 (BDF1) mice
Settings: endpoint: mean survival time, higher = longer survival
Method in brief: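 Each compound was tested against a transplantable tumor grown in mice. The endpoint was survival, with treated animals benchmarked against vehicle controls as a simple ratio.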

[1] = dose: 100.0 mg/kg/injection, schedule: Q01DX009 (ip), vehicle: saline
[2] = dose: 100.0 mg/kg/injection, schedule: Q04DX003 (ip), vehicle: saline
[3] = dose: 200.0 mg/kg/injection, schedule: Q01DX009 (ip), vehicle: saline
[4] = dose: 200.0 mg/kg/injection, schedule: Q04DX003 (ip), vehicle: saline
[5] = dose: 400.0 mg/kg/injection, schedule: Q01DX009 (ip), vehicle: saline
[6] = dose: 400.0 mg/kg/injection, schedule: Q04DX003 (ip), vehicle: saline
[7] = dose: 100.0 mg/kg/injection, schedule: Q04DX003 (ip), vehicle: saline with Tween-80
[8] = dose: 200.0 mg/kg/injection, schedule: Q04DX003 (ip), vehicle: saline with Tween-80
[9] = dose: 400.0 mg/kg/injection, schedule: Q04DX003 (ip), vehicle: saline with Tween-80
[10] = dose: 100.0 mg/kg/injection, schedule: Q01DX009 (ip), vehicle: saline with Tween-80
[11] = dose: 75.0 mg/kg/injection, schedule: Q01DX001 (ip), vehicle: saline
[12] = dose: 150.0 mg/kg/injection, schedule: Q01DX001 (ip), vehicle: saline
[13] = dose: 300.0 mg/kg/injection, schedule: Q01DX001 (ip), vehicle: saline

For `CC1(C)CC2(C)CC(=O)C1C(C(=O)O)C2C(=O)O` (centres undefined), the T/C (dose: 100.0 mg/kg/injection, schedule: Q01DX001 (ip), vehicle: saline) was 98 % of control, the T/C [1] was 93 % of control and the T/C [2] was 96 % of control. The T/C (dose: 200.0 mg/kg/injection, schedule: Q01DX001 (ip), vehicle: saline) was 90 % of control, the T/C [3] was 93 % of control and the T/C [4] was 91 % of control. For the same molecule, the T/C (dose: 400.0 mg/kg/injection, schedule: Q01DX001 (ip), vehicle: saline) was 91 % of control, the T/C [5] was 92 % of control and the T/C [6] was 89 % of control.
For `COC(=O)c1ccccc1C=O`, the T/C (dose: 100.0 mg/kg/injection, schedule: Q01DX001 (ip), vehicle: saline with Tween-80) was 102 % of control and the T/C (dose: 200.0 mg/kg/injection, schedule: Q01DX001 (ip), vehicle: saline with Tween-80) was 107 % of control.
In the case of `CC(=O)[O][Hg][c]1s[c]([Hg][O]C(C)=O)[c]([Hg][O]C(C)=O)[c]1[Hg][O]C(C)=O`, the T/C (dose: 6.25 mg/kg/injection, schedule: Q04DX003 (ip), vehicle: Klucel (hydroxypropylcellulose) (HPC)) is reported as 104 % of control, the T/C (dose: 12.5 mg/kg/injection, schedule: Q04DX003 (ip), vehicle: Klucel (hydroxypropylcellulose) (HPC)) is reported as 102 % of control and the T/C (dose: 25.0 mg/kg/injection, schedule: Q04DX003 (ip), vehicle: Klucel (hydroxypropylcellulose) (HPC)) is reported as 95 % of control. For the same molecule, the T/C (dose: 50.0 mg/kg/injection, schedule: Q04DX003 (ip), vehicle: Klucel (hydroxypropylcellulose) (HPC)) was 101 % of control.
In the case of `OC1C=CC2C3C=CC(C3)C12` (centres undefined), the T/C (dose: 50.0 mg/kg/injection, schedule: Q01DX009 (ip), vehicle: saline) is reported as 102 % of control, the T/C (dose: 50.0 mg/kg/injection, schedule: Q04DX003 (ip), vehicle: saline) is reported as 102 % of control and the T/C [1] is reported as 104 % of control. For the same molecule, the T/C [2] was 103 % of control, the T/C [3] was 95 % of control and the T/C [4] was 94 % of control. The T/C [5] was 95 % of control and the T/C [6] was 91 % of control.
For `OC1CCC2CCC(O)CC2C1` (centres undefined), the T/C [7] was 105 % of control, the T/C [8] was 105 % of control and the T/C [9] was 92 % of control.
With `CC(=O)OCC1OC(n2cnc3c(=S)nc(N)[nH]c32)CC1OC(C)=O` (centres undefined) the T/C (dose: 2.5 mg/kg/injection, schedule: Q01DX002 (ip), vehicle: Klucel (hydroxypropylcellulose) (HPC)) was 118 % of control, the T/C (dose: 5.0 mg/kg/injection, schedule: Q04DX003 (ip), vehicle: Klucel (hydroxypropylcellulose) (HPC)) was 117 % of control and the T/C (dose: 10.0 mg/kg/injection, schedule: Q01DX002 (ip), vehicle: Klucel (hydroxypropylcellulose) (HPC)) was 119 % of control. The T/C (dose: 10.0 mg/kg/injection, schedule: Q04DX003 (ip), vehicle: Klucel (hydroxypropylcellulose) (HPC)) was 121 % of control and the T/C (dose: 20.0 mg/kg/injection, schedule: Q01DX002 (ip), vehicle: Klucel (hydroxypropylcellulose) (HPC)) was 123 % of control.
With `CCCOC(C)(C)CCC/C(C)=C/COc1ccc(CC)cc1` the T/C (dose: 100.0 mg/kg/injection, schedule: Q04DX002 (ip), vehicle: saline with Tween-80) was 96 % of control, the T/C (dose: 200.0 mg/kg/injection, schedule: Q04DX002 (ip), vehicle: saline with Tween-80) was 92 % of control and the T/C (dose: 400.0 mg/kg/injection, schedule: Q04DX002 (ip), vehicle: saline with Tween-80) was 105 % of control.
`NCc1c(Cl)c(Cl)c(Cl)c(CN)c1Cl` was tested, and the T/C (dose: 50.0 mg/kg/injection, schedule: Q01DX001 (ip), vehicle: carboxymethylcellulose (CMC)) was 89 % of control, the T/C (dose: 50.0 mg/kg/injection, schedule: Q01DX009 (ip), vehicle: saline with Tween-80) was 97 % of control and the T/C (dose: 100.0 mg/kg/injection, schedule: Q01DX001 (ip), vehicle: carboxymethylcellulose (CMC)) was 94 % of control. The T/C [10] was 102 % of control and the T/C (dose: 200.0 mg/kg/injection, schedule: Q01DX009 (ip), vehicle: saline with Tween-80) was 93 % of control.
With `CN(C)N=Nc1ccccc1C(N)=O` the T/C (dose: 20.0 mg/kg/injection, schedule: Q01DX009 (ip), vehicle: Klucel (hydroxypropylcellulose) (HPC)) was 110 % of control, the T/C (dose: 30.0 mg/kg/injection, schedule: Q01DX009 (ip), vehicle: Klucel (hydroxypropylcellulose) (HPC)) was 110 % of control and the T/C (dose: 31.25 mg/kg/injection, schedule: Q01DX009 (ip), vehicle: saline with Tween-80) was 108 % of control. The T/C (dose: 37.25 mg/kg/injection, schedule: Q01DX009 (ip), vehicle: saline with Tween-80) was 112 % of control, the T/C (dose: 37.5 mg/kg/injection, schedule: Q04DX003 (ip), vehicle: saline with Tween-80) was 108 % of control and the T/C (dose: 45.0 mg/kg/injection, schedule: Q01DX009 (ip), vehicle: Klucel (hydroxypropylcellulose) (HPC)) was 119 % of control. For the same molecule, the T/C (dose: 55.25 mg/kg/injection, schedule: Q04DX003 (ip), vehicle: saline with Tween-80) was 104 % of control, the T/C (dose: 62.5 mg/kg/injection, schedule: Q01DX001 (ip), vehicle: saline with Tween-80) was 111 % of control and the T/C (dose: 67.0 mg/kg/injection, schedule: Q01DX009 (ip), vehicle: other) was 120 % of control. For the same molecule, the T/C (dose: 67.0 mg/kg/injection, schedule: Q01DX009 (ip), vehicle: saline with Tween-80) was 102 % of control, the T/C (dose: 74.5 mg/kg/injection, schedule: Q01DX009 (ip), vehicle: saline with Tween-80) was 119 % of control and the T/C (dose: 75.0 mg/kg/injection, schedule: Q01DX001 (ip), vehicle: other) was 107 % of control. The T/C (dose: 75.0 mg/kg/injection, schedule: Q04DX003 (ip), vehicle: saline with Tween-80) was 116 % of control, the T/C [10] was 109 % of control and the T/C (dose: 110.5 mg/kg/injection, schedule: Q04DX003 (ip), vehicle: saline with Tween-80) was 122 % of control. The T/C (dose: 125.0 mg/kg/injection, schedule: Q01DX001 (ip), vehicle: saline with Tween-80) was 110 % of control, the T/C (dose: 125.0 mg/kg/injection, schedule: Q01DX009 (ip), vehicle: saline with Tween-80) was 86 % of control and the T/C (dose: 149.0 mg/kg/injection, schedule: Q01DX009 (ip), vehicle: saline with Tween-80) was 156 % of control. The T/C (dose: 150.0 mg/kg/injection, schedule: Q01DX001 (ip), vehicle: other) was 107 % of control, the T/C (dose: 150.0 mg/kg/injection, schedule: Q01DX001 (ip), vehicle: saline with Tween-80) was 109 % of control and the T/C (dose: 150.0 mg/kg/injection, schedule: Q01DX009 (ip), vehicle: other) was 150 % of control. For the same molecule, the T/C (dose: 150.0 mg/kg/injection, schedule: Q01DX009 (ip), vehicle: saline with Tween-80) was 117 % of control, the T/C (dose: 150.0 mg/kg/injection, schedule: Q04DX003 (ip), vehicle: saline with Tween-80) was 120 % of control and the T/C (dose: 221.0 mg/kg/injection, schedule: Q04DX003 (ip), vehicle: saline with Tween-80) was 150 % of control. For the same molecule, the T/C (dose: 300.0 mg/kg/injection, schedule: Q01DX001 (ip), vehicle: other) was 123 % of control and the T/C (dose: 300.0 mg/kg/injection, schedule: Q04DX003 (ip), vehicle: saline with Tween-80) was 106 % of control.
`COc1cccc(/C=C/c2nc3ccccc3nc2/C=C/c2cccc(OC)c2OC)c1OC` was tested, and the T/C (dose: 50.0 mg/kg/injection, schedule: Q01DX009 (ip), vehicle: Klucel (hydroxypropylcellulose) (HPC)) was 95 % of control, the T/C (dose: 100.0 mg/kg/injection, schedule: Q01DX009 (ip), vehicle: Klucel (hydroxypropylcellulose) (HPC)) was 92 % of control and the T/C (dose: 200.0 mg/kg/injection, schedule: Q01DX009 (ip), vehicle: Klucel (hydroxypropylcellulose) (HPC)) was 101 % of control.
`ClCCCN1CCN(CCCCl)CC1` was tested, and the T/C (dose: 6.25 mg/kg/injection, schedule: Q01DX009 (ip), vehicle: distilled water + alcohol) was 93 % of control, the T/C (dose: 12.5 mg/kg/injection, schedule: Q01DX009 (ip), vehicle: distilled water + alcohol) was 95 % of control and the T/C (dose: 25.0 mg/kg/injection, schedule: Q01DX009 (ip), vehicle: distilled water + alcohol) was 101 % of control. For the same molecule, the T/C (dose: 50.0 mg/kg/injection, schedule: Q01DX009 (ip), vehicle: distilled water + alcohol) was 113 % of control and the T/C (dose: 100.0 mg/kg/injection, schedule: Q01DX009 (ip), vehicle: distilled water + alcohol) was 114 % of control.
In the case of `C(=C/P(c1ccccc1)c1ccccc1)/P(c1ccccc1)c1ccccc1`, the T/C [11] is reported as 108 % of control, the T/C [12] is reported as 98 % of control and the T/C [13] is reported as 93 % of control.
For `Cc1ccc(S(=O)(=O)NNC(=O)c2ccc[nH]2)cc1`, the T/C [11] was 101 % of control, the T/C [12] was 101 % of control and the T/C [13] was 96 % of control.
`CCN(CC)C(=O)COC(=O)c1cccc2[nH]ccc12` was tested, and the T/C [7] was 102 % of control, the T/C [8] was 100 % of control and the T/C [9] was 102 % of control.
For `CN(C)CCSC1=CC(=O)c2ccccc2C1=O`, the T/C (dose: 0.78 mg/kg/injection, schedule: Q01DX009 (ip), vehicle: water) was 91 % of control and the T/C (dose: 1.56 mg/kg/injection, schedule: Q01DX009 (ip), vehicle: water) was 92 % of control.
